Measurements as given in patent US6900041B2, “Methods and compositions for the treatment of inflammatory diseases” (Reddy US Therapeutics Inc., priority 2000, dated 2005).

Key:
Type in all cases: cell-based, human
[1] = tested on: GSK-3β expression; assay: GSK-3β immunoblotting (Western blot, densitometry) of endothelial cells; conditions: 24 hours
Procedure: GSK-3β-immunoblotting analyses of endothelial cells treated with different inflammatory and non-inflammatory agents were performed.
Cells were treated as taught in Examples 1 and 2. Endothelial cells were incubated with an agent for 24 hours. […] After incubation, the cells were washed, lysed and separated by polyacrylamide gel electrophoresis. Western blotting was performed, using antibody directed to GSK-3β, and detected.

[2] = tested on: IL-6 production by endothelial cells; assay: IL-6 ELISA of endothelial cell media
Procedure: Human aortic (HAEC) and microvascular (HMVEC) endothelial cells (Clonetics) were cultured and subcultured according to manufacturer in growth medium (Clonetics): basal medium containing hEGF, hydrocortisone, VEGF, HFGF-B (w/heparin), long R3-IGF-1, Ascorbic acid, gentamicin/amphotericin and 5% FBS. These cell were allowed to reach >90% confluency before being subjected to experimental treatments. […] Tumor necrosis factor α was from R&D Systems. Cells were incubated with 20 mM lithium (as LiCl or with 20 mM KCl as control) in the presence or absence of TNFα (10 ng/ml). Insulin (1 nM) was also used to inhibit GSK-3β.
HMVEC cells were treated with control medium or medium containing 10 ng/ml TNFα or 100 μg/ml glycated-HSA for 24 hrs. All treatments and controls were carried out in serum free media containing 0.2% albumin. […]
IL-6 ELISA was carried out using human IL-6 DuoSet ELISA development kit as described by manufacturer (R&D Systems). […] Color development was read at 450 nm in a microplate reader. […]
Following 24 h transfection, the cells were incubated for 24 h with medium alone or medium containing 300 μg/ml glycated albumin (AGE) or medium containing 10 ng/ml TNF-α. IL-6 and MCP-1 were determined by ELISA, as shown in Examples 2 and 3.
Empty vectors or vectors carrying alkaline phosphatase were used as controls. […] IL-6 and MCP-1 were determined by ELISA as described in Examples 2 and 3.

[3] = tested on: GSK-3β expression; assay: RT-PCR of GSK-3β in endothelial cells; conditions: endothelial cells (HMVEC); TNFα 10 ng/ml or AGE 100 μg/ml; 8 hours; vs control
Procedure: HMVEC cells were treated with control medium or medium containing 10 ng/ml TNFα or 100 μg/ml glycated-HSA for 24 hrs. All treatments and controls were carried out in serum free media containing 0.2% albumin. Cells were collected into cold PBS using a cell scraper and used for RNA isolation.
Endothelial cells were incubated in media alone (control) or media containing TNFα (10 ng/ml) or AGE (100 μg/ml) for 8 hours. Poly (A) RNA was isolated and used as template for RT-PCR. Poly (A)+RNA was isolated from confluent cultures of HMVEC incubated under various conditions, using the Micropoly (A) pure kit (Ambion). RT-PCR with Superscript First-strand synthesis system (BRL) was performed according to the manufacture's instructions. […] 2: [sequence], representing a 406 bp region (from 519-925) in the coding sequence of GSK-3β (GSK-3β GenBank Accession No. L33801). […] PCR was carried out by using an initial denaturing step at 96° C. for 5 min, then cycle 35-times (or 25 times for quantitative RT-PCR) between 96° C. for 1 min, 58° C. for 45 sec, and 72° C. for 2 min. […] Samples (10 μl) were analyzed on a 1% agarose gel and stained with ethidium bromide and visualized by UV Tran illuminator (UIVP).

[4] = tested on: VCAM-1 expression; assay: VCAM-1 ELISA on endothelial cell monolayers; conditions: 24 h
Procedure: HMVEC cells were treated with control medium or medium containing 10 ng/ml TNFα or 100 μg/ml glycated-HSA for 24 hrs. All treatments and controls were carried out in serum free media containing 0.2% albumin. Following treatment, cell media were collected and used for IL-6, MCP-1 ELISA and cells were used for VCAM-1 ELISA which was conducted in situ without lysis. Inhibition of GSK-3β altered inflammation-related adhesion molecule expression. VCAM-1 is an endothelial adhesion molecule that facilitates monocyte infiltration into the blood vessel (3). Cells were treated as described in Example 2. Endothelial cells were exposed to KCl (10 mM, as a control) or with TNFα (10 ng/ml); LiCl (10 mM) alone and with TNFα (10 ng/ml), insulin (1 nM) alone or with TNFα (10 ng/ml). Following incubation for 24 h, […] assayed for VCAM-1 by ELISA. VCAM-1 ELISA was performed on monolayers of endothelial cells in 96 well plates. Wells were incubated with 100 μl of 1:1000 dilution of primary antibody (polyclonal goat anti-human VCAM-1 from R&D Systems) in medium containing 10% FBS. A rabbit anti-goat IgG-HRP was used as secondary antibody and ELISA was performed as described for MCP-1 above.

[5] = tested on: GSK-3β promoter; assay: GSK-3β promoter-luciferase reporter assay in transfected BAEC; conditions: TNFα 10 ng/ml, 24-48 hours
Procedure: pGL3-GSK3B−1478/+534 was transfected into bovine aortic endothelial cells (BAEC) by electroporation. Transfected cells were aliquoted into 96 well plates and allowed to recover in full media for 16-24 hours. […] Luciferase activity was measured in cell lysates using Bright-Glo Luciferase Assay System (Promega).

[6] = tested on: MCP-1 production by endothelial cells; assay: MCP-1 ELISA of endothelial cell media; conditions: 24 h
Procedure: MCP-1 ELISA was carried out using Quantikine Human MCP-1 kit as described by manufacturer (R&D Systems). Mouse anti-human MCP-1 was used as the capture antibody and HRP-conjugated goat anti-human MCP-1 was used as the detection antibody. Culture media were incubated with capture antibody (in 96 well) for 2 h at room temperature. Wells were washed three times with wash buffer (0.05% Tween-20 in PBS followed by incubation with detection antibody for 2 h at room temperature. Color development was read at 450 nm in a microplate reader.
Endothelial cells, as grown in Example 1 and 2, were transfected with oligonucleotides using Cytofectin transfection reagent. […] IL-6 and MCP-1 were determined by ELISA, as shown in Examples 2 and 3.
Inhibition of GSK-3β led to […] inflammatory gene expression in endothelial cells. Overexpression of GSK-3β protein inhibited inducible inflammatory gene expression in endothelial cells. Full length GSK-3β cDNA was cloned into a retroviral vector pLIB. Empty vectors or vectors carrying alkaline phosphatase were used as controls. Retroviral particles carrying different genes were generated in HEK-293 cells. […] IL-6 and MCP-1 were determined by ELISA as described in Examples 2 and 3.

VEGF
induction of GSK-3β expression ([1]; VEGF 10 ng/ml): ~2 fold

TNFα
increase in IL-6 secretion ([2]; TNFα 10 ng/ml alone, 24 h): greater than 10 fold | induction of IL-6 expression ([2]; endothelial cells transduced with control vector): 10 fold | decrease of GSK-3β expression ([1]; TNF-α 10 ng/ml, AGE 300 μg/ml, oxidized LDL 100 μg/ml, IL-1β 1 ng/ml): 70% | intensity of the 406 bp GSK-3β RT-PCR band [3]: decreased | VCAM-1 expression, % of basal levels ([4]; TNFα 10 ng/ml alone): 340% | decrease of GSK-3β promoter activity (luciferase) [5]: greater than 50%

insulin: known inhibitor of GSK-3β
increase of MCP-1 ([6]; added together with AGE 300 μg/ml, LiCl 10 mM or insulin 1 nM): approximately 2.8 fold | increase of MCP-1 secretion ([6]; agent alone (LiCl 10 mM, insulin 1 nM), vs 10 mM KCl (about 400 pg/ml)): about 50% | effect on VCAM expression ([4]; agent alone (LiCl 10 mM, insulin 1 nM)): did not significantly affect | effect on TNFα-induced VCAM-1 expression ([4]; insulin 1 nM together with TNFα 10 ng/ml, vs TNFα alone): almost doubled the effect of TNFα alone
